Test results as given in patent US12187742B2 (XRAD Therapeutics, Inc., priority 2018, dated 2025).
Where a name gives a salt, the structure may show the parent alone.

Assays:
[1] = target: DNA-PK (Homo sapiens (Human), UniProt P78527); experiment: DNA-PK Enzyme-Linked Immunosorbent Assay (phosphorylation of GST-p53 (1-101) peptide); type: biochemical; conditions: ELISA, 20 μM ATP
In short: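 Inhibition measured by 450 nm absorbance after HRP/TMB detection of phospho-Ser15 on immobilized GST-p53 (1-101). The kinase reaction used 0.1 μg/mL DNA-PK and 20 μM ATP, 1 h at 25 °C. Ten 3-fold compound dilutions, top final concentration 100 nM.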

[2] = target: ATM (Homo sapiens (Human), UniProt Q13315); experiment: ATM in Cell Western Assay (pKAP1 in etoposide-treated MCF-7 cells); type: cell-based; conditions: pKAP1 in etoposide-treated MCF-7 cells
ATM, sequence (Q13315 whole entry): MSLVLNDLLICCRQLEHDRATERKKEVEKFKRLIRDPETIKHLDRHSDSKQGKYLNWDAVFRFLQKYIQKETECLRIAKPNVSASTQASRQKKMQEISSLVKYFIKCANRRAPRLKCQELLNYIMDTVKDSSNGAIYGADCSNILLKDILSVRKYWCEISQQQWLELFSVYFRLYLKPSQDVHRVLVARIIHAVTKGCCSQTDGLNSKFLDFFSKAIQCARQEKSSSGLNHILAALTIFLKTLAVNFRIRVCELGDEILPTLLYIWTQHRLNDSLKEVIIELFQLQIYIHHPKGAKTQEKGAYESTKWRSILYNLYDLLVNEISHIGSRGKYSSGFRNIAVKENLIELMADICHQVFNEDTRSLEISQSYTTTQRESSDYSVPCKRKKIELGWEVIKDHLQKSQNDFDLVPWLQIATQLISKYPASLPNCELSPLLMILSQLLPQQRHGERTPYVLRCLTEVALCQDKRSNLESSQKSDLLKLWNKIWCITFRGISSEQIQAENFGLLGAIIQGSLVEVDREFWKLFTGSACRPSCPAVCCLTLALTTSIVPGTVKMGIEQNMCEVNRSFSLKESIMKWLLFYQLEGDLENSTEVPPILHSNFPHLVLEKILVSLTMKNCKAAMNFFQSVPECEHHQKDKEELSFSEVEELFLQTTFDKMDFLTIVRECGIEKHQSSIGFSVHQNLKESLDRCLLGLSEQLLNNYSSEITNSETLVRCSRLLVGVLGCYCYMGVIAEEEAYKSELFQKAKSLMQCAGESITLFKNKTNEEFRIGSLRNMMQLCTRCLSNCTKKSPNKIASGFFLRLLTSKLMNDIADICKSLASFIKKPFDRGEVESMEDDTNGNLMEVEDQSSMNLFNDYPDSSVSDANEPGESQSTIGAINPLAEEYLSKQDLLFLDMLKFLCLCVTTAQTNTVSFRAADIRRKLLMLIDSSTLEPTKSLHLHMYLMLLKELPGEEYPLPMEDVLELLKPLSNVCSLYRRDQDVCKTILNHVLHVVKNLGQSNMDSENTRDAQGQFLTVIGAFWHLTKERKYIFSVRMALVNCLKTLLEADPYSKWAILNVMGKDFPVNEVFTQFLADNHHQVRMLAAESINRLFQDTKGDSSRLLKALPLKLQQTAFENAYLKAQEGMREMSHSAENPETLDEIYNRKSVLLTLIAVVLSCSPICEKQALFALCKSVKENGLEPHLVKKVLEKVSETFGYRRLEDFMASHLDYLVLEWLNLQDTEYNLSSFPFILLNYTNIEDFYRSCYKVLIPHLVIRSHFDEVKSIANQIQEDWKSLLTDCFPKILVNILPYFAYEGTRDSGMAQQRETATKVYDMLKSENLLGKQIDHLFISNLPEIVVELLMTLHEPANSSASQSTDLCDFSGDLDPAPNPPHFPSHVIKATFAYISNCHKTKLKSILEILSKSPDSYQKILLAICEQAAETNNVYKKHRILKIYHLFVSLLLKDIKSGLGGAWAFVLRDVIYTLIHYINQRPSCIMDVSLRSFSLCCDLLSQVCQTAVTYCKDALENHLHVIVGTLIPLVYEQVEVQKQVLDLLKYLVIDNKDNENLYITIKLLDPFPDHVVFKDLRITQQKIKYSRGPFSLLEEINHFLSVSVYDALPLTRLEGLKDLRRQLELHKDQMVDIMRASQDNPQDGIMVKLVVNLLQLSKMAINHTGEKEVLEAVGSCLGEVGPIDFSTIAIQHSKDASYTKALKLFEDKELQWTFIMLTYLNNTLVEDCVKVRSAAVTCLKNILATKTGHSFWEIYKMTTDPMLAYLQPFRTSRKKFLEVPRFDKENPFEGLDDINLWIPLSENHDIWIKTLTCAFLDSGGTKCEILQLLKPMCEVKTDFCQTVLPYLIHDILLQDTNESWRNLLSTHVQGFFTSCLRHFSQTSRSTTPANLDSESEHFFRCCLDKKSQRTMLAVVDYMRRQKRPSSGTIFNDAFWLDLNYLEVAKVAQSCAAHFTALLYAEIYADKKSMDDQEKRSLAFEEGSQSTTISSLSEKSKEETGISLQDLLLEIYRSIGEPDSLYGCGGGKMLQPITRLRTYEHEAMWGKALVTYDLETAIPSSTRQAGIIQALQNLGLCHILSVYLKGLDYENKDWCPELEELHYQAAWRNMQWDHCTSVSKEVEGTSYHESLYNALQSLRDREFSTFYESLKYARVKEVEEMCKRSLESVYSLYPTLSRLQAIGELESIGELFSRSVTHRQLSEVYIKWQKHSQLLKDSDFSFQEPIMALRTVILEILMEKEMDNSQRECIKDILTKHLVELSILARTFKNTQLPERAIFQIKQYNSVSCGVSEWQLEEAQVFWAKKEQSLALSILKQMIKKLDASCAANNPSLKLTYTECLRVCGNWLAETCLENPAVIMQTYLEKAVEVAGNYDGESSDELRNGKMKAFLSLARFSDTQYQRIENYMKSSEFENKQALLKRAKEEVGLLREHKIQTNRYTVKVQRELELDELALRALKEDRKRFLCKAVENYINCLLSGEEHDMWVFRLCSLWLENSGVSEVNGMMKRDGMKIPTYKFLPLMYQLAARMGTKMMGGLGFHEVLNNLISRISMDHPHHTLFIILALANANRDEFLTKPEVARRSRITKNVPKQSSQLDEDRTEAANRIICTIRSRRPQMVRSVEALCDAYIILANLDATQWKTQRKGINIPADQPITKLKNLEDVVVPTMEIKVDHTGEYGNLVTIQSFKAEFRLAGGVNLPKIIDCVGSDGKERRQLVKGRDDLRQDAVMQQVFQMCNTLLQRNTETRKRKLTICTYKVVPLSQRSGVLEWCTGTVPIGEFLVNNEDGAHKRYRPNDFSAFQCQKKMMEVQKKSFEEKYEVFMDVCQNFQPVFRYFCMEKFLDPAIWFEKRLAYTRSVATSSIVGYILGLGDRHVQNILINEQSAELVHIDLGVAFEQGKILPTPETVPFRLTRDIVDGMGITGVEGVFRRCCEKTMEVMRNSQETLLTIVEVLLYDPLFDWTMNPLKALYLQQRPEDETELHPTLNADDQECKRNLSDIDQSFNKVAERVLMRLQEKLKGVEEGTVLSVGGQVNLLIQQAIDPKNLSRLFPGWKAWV
In short: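 After paraformaldehyde fixation and Triton X-100 permeabilization, immunostained plates were read by infrared scanning (ODYSSEY CLx). Compound was given as 10 doses, 3-fold dilutions from a 1 μM final top concentration.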

Row | SMILES | IC50 [1] [nM] | IC50 [2] [nM]
1 | CN1CC2CN(c3ncc(-c4ccc5ncc6c(c5c4)C4(CCC4)C(=O)N6C)cc3NS(C)(=O)=O)CC2C1 (centres unmarked) [Example 350, N-(5-(3′-Methyl-2′-oxo-2′,3′-dihydrospiro[cyclobutane-1,1′-pyrrolo[2,3-c]quinolin]-8′-yl)-2-(5-methylhexahydropyrrolo[3,4-c]pyrrol-2(1H)-yl)pyridin-3-yl)methanesulfonamide formate] | 1 to 100 | 1 to 100
2 | CN1C(=O)C2(CCC2)c2c1cnc1ccc(-c3cnc(N4CCC(N5CCOCC5)CC4)c(NS(=O)(=O)N(C)C)c3)cc21 [Example 355, 8′-{5-[(Dimethylsulfamoyl)amino]-6-[4-(morpholin-4-yl)piperidin-1-yl]pyridin-3-yl}-3′-methyl-2′,3′-dihydrospiro[cyclobutane-1,1′-pyrrolo[2,3-c]quinoline]-2′-one] | 1 to 100 | 1 to 100
3 | CN1C(=O)C2(CCC2)c2c1cnc1cc(F)c(-c3cnc(N4CCC(N5CCCCC5)CC4)c(NS(C)(=O)=O)c3)cc21 [Example 358, N-(2-([1,4-Bipiperidin]-1′-yl)-5-(7′-fluoro-3′-methyl-2′-oxo-2′,3′-dihydrospiro[cyclobutane-1,1′-pyrrolo[2,3-c]quinolin]-8′-yl)pyridin-3-yl)methanesulfonamide hydrochloride] | 1 to 100 | 0.5 to 1
4 | CC(C)NCCOc1ncc(-c2cc3c4c(cnc3cc2F)N(C)C(=O)C42CCC2)cc1NS(=O)(=O)C1CC1 [Example 365, N-(5-(7′-Fluoro-3′-methyl-2′-oxo-2′,3′-dihydrospiro[cyclobutane-1,1′-pyrrolo[2,3-c]quinolin]-8′-yl)-2-(2-(isopropylamino)ethoxy)pyridin-3-yl)cyclopropanesulfonamide hydrochloride] | 1 to 100 | 1 to 100
5 | CC(C)NCCOc1ncc(-c2cc3c4c(cnc3cc2F)N(C)C(=O)C42CCC2)cc1NS(=O)(=O)C1(C)CC1 [Example 367, N-(5-(7′-Fluoro-3′-methyl-2′-oxo-2′,3′-dihydrospiro[cyclobutane-1,1′-pyrrolo[2,3-c]quinolin]-8′-yl)-2-(2-(isopropylamino)ethoxy)pyridin-3-yl)-1-methylcyclopropane-l-sulfonamide] | 1 to 100 | 1 to 100
6 | CC(C)NCCOc1ncc(-c2cc3c4c(cnc3cc2F)N(C)C(=O)C42CCC2)cc1NS(=O)(=O)N1CCC1 [Example 370, N-(5-(7′-Fluoro-3′-methyl-2′-oxo-2′,3′-dihydrospiro [cyclobutane-1,1′-pyrrolo[2,3-c]quinolin]-8′-yl)-2-(2-(isopropylamino)ethoxy)pyridin-3-yl)azetidine-1-sulfonamide] | 1 to 100 | 1 to 100
7 | CC(C)NCCOc1ncc(-c2cc3c4c(cnc3cc2F)N(C)C(=O)C42CCC2)cc1NS(=O)(=O)N1CC(F)C1 [Example 371, 3-Fluoro-N-(5-(7′-fluoro-3′-methyl-2′-oxo-2′,3′-dihydrospiro[cyclobutane-1,1′-pyrrolo[2,3-c]quinolin]-8′-yl)-2-(2-(isopropylamino)ethoxy)pyridin-3-yl)azetidine-1-sulfonamide] | 1 to 100 | 1 to 100
8 | CC(C)NCCOc1ncc(-c2cc3c4c(cnc3cc2F)N(C)C(=O)C42CCC2)cc1NS(=O)(=O)N1CCOCC1 [Example 373, N-(5-(7′-Fluoro-3′-methyl-2′-oxo-2′,3′-dihydrospiro [cyclobutane-1,1′-pyrrolo [2,3-c]quinolin]-8′-yl)-2-(2-(isopropylamino)ethoxy)pyridin-3-yl)morpholine-4-sulfonamide hydrochloride] | 1 to 100 | 1 to 100
9 | CC(C)NCCOc1ncc(-c2cc3c4c(cnc3cc2F)N(C)C(=O)C42CCC2)cc1NS(=O)(=O)CCN(C)C [Example 375, 2-(Dimethylamino)-N-(5-(7′-fluoro-3′-methyl-2′-oxo-2′,3′-dihydrospiro[cyclobutane-1,1′-pyrrolo[2,3-c]quinolin]-8′-yl)-2-(2-(isopropylamino)ethoxy)pyridin-3-yl)ethane-1-sulfonamide hydrochloride] | 1 to 100 | 1 to 100
10 | CN(C)CCCOc1ncc(-c2ccc3ncc4c(c3c2)[C@]2(C[C@@H](O)C2)C(=O)N4C)cc1NS(C)(=O)=O [Example 383, trans-N-(2-(3-(Dimethylamino)propoxy)-5-(3-hydroxy-3′-methyl-2′-oxo-2′,3′-dihydrospiro[cyclobutane-1,1′-pyrrolo[2,3-c]quinolin]-8′-yl)pyridin-3-yl)methanesulfonamide] | 1 to 100 | 1 to 100
11 | CO[C@H]1C[C@]2(C1)C(=O)N(C)c1cnc3cc(F)c(-c4cnc(OCCNC(C)C)c(NS(=O)(=O)C5CC5)c4)cc3c12 [Example 387, cis-N-(5-(7′-Fluoro-3-methoxy-3′-methyl-2′-oxo-2′,3′-dihydrospiro[cyclobutane-1,1′-pyrrolo[2,3-c]quinolin]-8′-yl)-2-(2-(isopropylamino)ethoxy)pyridin-3-yl)cyclopropanesulfonamid] | 1 to 100 | 1 to 100
12 | CO[C@H]1C[C@@]2(C1)C(=O)N(C)c1cnc3cc(F)c(-c4cnc(OCCNC(C)C)c(NS(=O)(=O)C5CC5)c4)cc3c12 [Example 388, trans-N-{5-(7′-Fluoro-3-methoxy-3 methyl-2′-oxo-2′,3′-dihydrospiro [cyclobutane-1,1′-pyrrolo[2,3-c]quinolin]-8′-yl)-2-(2-(isopropylamino)ethoxy)pyridin-3-yl)cyclopropanesulfonamide] | 1 to 100 | 1 to 100
13 | CO[C@H]1C[C@]2(C1)C(=O)N(C)c1cnc3cc(F)c(-c4cnc(OCCNC(C)C)c(NS(=O)(=O)N(C)C)c4)cc3c12 [Example 389, cis-8′-{5-[(Dimethylsulfamoyl)amino]-6-{2-[(propan-2-yl)amino]ethoxy}pyridine-3-yl}-7′-fluoro-3-Methoxy-3′-methyl-2′,3′-dihydrospiro[cyclobutane-1,1′-pyrrolo[2,3-c]quinoline]-2′-one] | 1 to 100 | 1 to 100
14 | CO[C@H]1C[C@@]2(C1)C(=O)N(C)c1cnc3cc(F)c(-c4cnc(OCCNC(C)C)c(NS(=O)(=O)N(C)C)c4)cc3c12 [Example 390] | 1 to 100 | 1 to 100
15 | CO[C@H]1C[C@]2(C1)C(=O)N(C)c1cnc3cc(F)c(-c4cnc(N5CCC(N6CCCCC6)CC5)c(NS(C)(=O)=O)c4)cc3c12 [Example 391, cis-N-(2-([1,4′-Bipiperidin]-1′-yl)-5-(7′-fluoro-3-methoxy-3′-methyl-2′-oxo-2′,3′-dihydrospiro[cyclobutane-1,1′-pyrrolo[2,3-c]quinolin]-8′-yl)pyridin-3-yl)methanesulfonamide] | 1 to 100 | 1 to 100

The remaining lines, values ahead:

Row | IC50 [1] [nM] | IC50 [2] [nM] | SMILES
16 | 1 to 100 | 1 to 100 | CCS(=O)(=O)Nc1cc(-c2cc3c4c(cnc3cc2F)N(C)C(=O)C42CCC2)cnc1N1CC(N(C)C)C1 [Example 343, N-(2-(3-(Dimethylamino)azetidin-1-yl)-5-(7′-fluoro-3′-methyl-2′-oxo-2′,3′-dihydrospiro[cyclobutane-1,1′-pyrrolo[2,3-c]quinolin]-8′-yl)pyridin-3-yl)ethanesulfonamide formate]
17 | 0.5 to 1 | < 0.5 | CN1C(=O)C2(CCC2)c2c1cnc1ccc(-c3cnc(N4CCC(N5CCOCC5)CC4)c(NS(=O)(=O)C4CC4)c3)cc21 [Example 356, N-(5-(3′-Methyl-2′-oxo-2′,3′-dihydrospiro[cyclobutane-1,1′-pyrrolo[2,3-c]quinolin]-8′-yl)-2-(4-morpholinopiperidin-l-yl)pyridin-3-yl)cyclopropanesulfonamide hydrochloride]
18 | 0.5 to 1 | 0.5 to 1 | CN1C(=O)C2(CCC2)c2c1cnc1ccc(-c3cnc(N4CCC(N5CCOCC5)CC4)c(NS(C)(=O)=O)c3)cc21 [Example 357, N-(5-(3′-Methyl-2′-oxo-2′,3′-dihydrospiro[cyclobutane-1,1′-pyrrolo[2,3-c]quinolin]-8′-yl)-2-(4-morpholinopiperidin-l-yl)Pyridin-3-yl)methanesulfonamide hydrochloride]
19 | 0.5 to 1 | 1 to 100 | CC(C)NCCOc1ncc(-c2cc3c4c(cnc3cc2F)N(C)C(=O)C42CCC2)cc1NS(=O)(=O)C(C)(C)C [Example 366, N-(5-(7′-Fluoro-3′-methyl-2′-oxo-2′,3′-dihydrospiro[cyclobutane-1,1′-pyrrolo[2,3-c]quinolin]-8′-yl)-2-(2-(isopropylamino)ethoxy)pyridin-3-yl)-2-methylpropane-2-sulfonamide]
20 | 0.5 to 1 | 1 to 100 | CC(C)NCCOc1ncc(-c2cc3c4c(cnc3cc2F)N(C)C(=O)C42CCC2)cc1NS(=O)(=O)N(C)C [Example 369, 8′-{5-[(Dimethylsulfamoyl)amino]-6-{2-[(propan-2-ylamino]ethoxy′}pyridin-3-yl}-7′-fluoro-3′-methyl-2′,3′-dihydrospiro [cyclobutane-1,1′-pyrrolo[2,3-c]quinoline]-2′-one hydrochloride]
21 | < 0.5 | 1 to 100 | CO[C@H]1C[C@@]2(C1)C(=O)N(C)c1cnc3ccc(-c4cnc(OCCNC(C)C)c(NS(C)(=O)=O)c4)cc3c12 [Example 384, trans-N-(2-(2-(Isopropylamino)ethoxy)-5-(3-methoxy-3′-methyl-2′-oxo-2,3′-dihydrospiro[cyclobutane-1,1′-pyrrolo[2,3-c]quinolin]-8′-yl)pyridin-3-yl)methanesulfonamide hydrochloride]
22 | < 0.5 | 1 to 100 | CO[C@H]1C[C@]2(C1)C(=O)N(C)c1cnc3cc(F)c(-c4cnc(OCCNC(C)C)c(NS(C)(=O)=O)c4)cc3c12 [Example 385, cis-N-(5-(7′-Fluoro-3-methoxy-3′-methyl-2′-oxo-2′,3′-dihydrospiro[cyclobutane-1,1′-pyrrolo[2,3-c]quinolin]-8′-yl)-2-(2-(isopropylamino)ethoxy)pyridin-3-yl)methanesulfonamide]
